Target: LSD-1 enzyme (Homo sapiens (Human), UniProt O60341)
Assay: LANCE LSD1/KDM1A demethylase assay (LSD1 histone demethylase biochemical assay)
Settings: 1 nM LSD-1 enzyme, 1 hour preincubation at 25° C., 0.4 μM Biotin-labeled Histone H3 peptide substrate
Protocol: Example A: LSD1 histone demethylase biochemical assay
LANCE LSD1/KDM1A demethylase assay—10 μL of 1 nM LSD-1 enzyme (ENZO BML-SE544-0050) in the assay buffer (50 mM Tris, pH 7.5, 0.01% Tween-20, 25 mM NaCl, 5 mM DTT) were preincubated for 1 hour at 25° C. with 0.8 μL compound/DMSO dotted in black 384 well polystyrene plates. Reactions were started by addition of 10 μL of assay buffer containing 0.4 μM Biotin-labeled Histone H3 peptide substrate: ART-K(Me1)-[…]-GGK(Biotin) SEQ ID NO: 1 (AnaSpec 64355) and incubated for 1 hour at 25° C. Reactions were stopped by addition of 10 μL 1× LANCE Detection Buffer (PerkinElmer CR97-100) supplemented with 1.5 nM Eu-anti-unmodified H3K4 Antibody (PerkinElmer TRF0404), and 225 nM LANCE Ultra Streptavidin (PerkinElmer TRF102) along with 0.9 mM Tranylcypromine-HCl (Millipore 616431). After stopping the reactions plates were incubated for 30 minutes and read on a PHERAstar FS plate reader (BMG Labtech).

| Compound | IC50 |
| --- | --- |
| N#Cc1ccc(N2CC(CN[C@@H]3C[C@H]3c3ccccc3)C2)c(F)c1 (relative stereo) [Example 1, 3-Fluoro-4-[3-({[trans-2-phenylcyclopropyl]amino}methyl)azetidin-1-yl]benzonitrile] | < 100 nM |
| N#Cc1cc(F)c(N2CC(CN[C@@H]3C[C@H]3c3ccccc3)C2)c(F)c1 (relative stereo) [Example 2, 3,5-Difluoro-4-[3-({[trans-2-phenylcyclopropyl]amino}methyl)azetidin-1-yl]benzonitrile] | < 100 nM |
| CC(C)NC(=O)c1cc(F)c(N2CC(CN[C@@H]3C[C@H]3c3ccccc3)C2)cc1F (relative stereo) [Example 3, 2,5-Difluoro-N-isopropyl-4-(3-{[(trans-2-phenylcyclopropyl)amino]methyl}azetidin-1-yl)benzamide] | < 100 nM |
| Cc1nc(N2CC(CN[C@@H]3C[C@H]3c3ccccc3)C2)ccc1C#N (relative stereo) [Example 4, 2-Methyl-6-[3-({[trans-2-phenylcyclopropyl]amino}methyl)azetidin-1-yl]nicotinonitrile] | < 100 nM |
| CCNC(=O)c1cnc(N2CC(CN[C@@H]3C[C@H]3c3ccccc3)C2)cn1 (relative stereo) [Example 5, N-Ethyl-5-(3-{[(trans-2-phenylcyclopropyl)amino]methyl}azetidin-1-yl)pyrazine-2-carboxamide] | < 100 nM |
| CC(C)NC(=O)c1cc(F)c(N2CC(CN[C@@H]3C[C@H]3c3ccccc3)C2)c(F)c1 (relative stereo) [Example 6, 3,5-Difluoro-N-isopropyl-4-(3-{[(trans-2-phenylcyclopropyl)amino]methyl}azetidin-1-yl)benzamide] | < 100 nM |
| CC(C)NC(=O)c1c(F)cc(N2CC(CN[C@@H]3C[C@H]3c3ccccc3)C2)cc1F (relative stereo) [Example 7, 2,6-Difluoro-N-isopropyl-4-(3-{[(trans-2-phenylcyclopropyl)amino]methyl}azetidin-1-yl)benzamide] | < 100 nM |
| CC(C)NC(=O)c1ccc(N2CC(CN[C@@H]3C[C@H]3c3ccccc3)C2)c(F)c1F (relative stereo) [Example 8, 2,3-Difluoro-N-isopropyl-4-(3-{[(trans-2-phenylcyclopropyl)amino]methyl}azetidin-1-yl)benzamide] | < 100 nM |
| CC(C)NC(=O)c1cc(F)c(N2CC(CN[C@@H]3C[C@H]3c3ccccc3)C2)cc1Cl (relative stereo) [Example 9, 2-Chloro-5-fluoro-N-isopropyl-4-(3-{[(trans-2-phenylcyclopropyl)amino]methyl}azetidin-1-yl)benzamide] | < 100 nM |
| CC(C)NC(=O)c1ccc(N2CC(CN[C@@H]3C[C@H]3c3ccccc3)C2)c(F)c1 (relative stereo) [Example 10, 3-Fluoro-N-isopropyl-4-(3-{[(trans-2-phenylcyclopropyl)amino]methyl}azetidin-1-yl)benzamide] | < 100 nM |
| CC(C)NC(=O)c1ccc(N2CC(CN[C@@H]3C[C@H]3c3ccccc3)C2)cc1F (relative stereo) [Example 11, 2-Fluoro-N-isopropyl-4-(3-{[(trans-2-phenylcyclopropyl)amino]methyl}azetidin-1-yl)benzamide] | < 100 nM |
| Cc1cc(C(=O)NC(C)C)c(F)cc1N1CC(CN[C@@H]2C[C@H]2c2ccccc2)C1 (relative stereo) [Example 12, 2-Fluoro-N-isopropyl-5-methyl-4-(3-{[(trans-2-phenylcyclopropyl)amino]methyl}azetidin-1-yl)benzamide] | < 100 nM |
| COc1cc(N2CC(CN[C@@H]3C[C@H]3c3ccccc3)C2)ccc1C(=O)NC(C)C (relative stereo) [Example 13, N-Isopropyl-2-methoxy-4-(3-{[(trans-2-phenylcyclopropyl)amino]methyl}azetidin-1-yl)benzamide] | < 100 nM |
| CC(C)NC(=O)c1ccc(N2CC(CN[C@@H]3C[C@H]3c3ccccc3)C2)c(Cl)c1 (relative stereo) [Example 14, 3-Chloro-N-isopropyl-4-(3-{[(trans-2-phenylcyclopropyl)amino]methyl}azetidin-1-yl)benzamide] | < 100 nM |
| O=C(NC1(C(F)(F)F)CC1)c1ccc(N2CC(CN[C@@H]3C[C@H]3c3ccccc3)C2)cn1 (relative stereo) [Example 15, 5-(3-{[(trans-2-Phenylcyclopropyl)amino]methyl}azetidin-1-yl)-N-[1-(trifluoromethyl)cyclopropyl]pyridine-2-carboxamide] | < 100 nM |
| CN1CCN(c2cc(N3CC(CN[C@@H]4C[C@H]4c4ccccc4)C3)ncn2)CC1 (relative stereo) [Example 16, N-({1-[6-(4-Methylpiperazin-1-yl)pyrimidin-4-yl]azetidin-3-yl}methyl)-trans-2-phenylcyclopropanamine] | < 100 nM |

| Compound | IC50 |
| --- | --- |
| Cn1cc(N2CC(CN[C@@H]3C[C@H]3c3ccccc3)C2)cn1 (relative stereo) [Example 17, trans-N-{[1-(1-Methyl-1H-pyrazol-4-yl)azetidin-3-yl]methyl}-2-phenylcyclopropanamine] | < 100 nM |
| N#CCC1(CN[C@@H]2C[C@H]2c2ccccc2)CCN(c2cccc(Cl)c2C#N)CC1 (relative stereo) [Example 18, 2-Chloro-6-(4-(cyanomethyl)-4-{[(trans-2-phenylcyclopropyl)amino]methyl}piperidin-1-yl)benzonitrile] | < 100 nM |
| N#CCC1(CN[C@@H]2C[C@H]2c2ccccc2)CCN(c2ncccc2C(F)(F)F)CC1 (relative stereo) [Example 19, {4-{[(trans-2-Phenylcyclopropyl)amino]methyl}-1-[3-(trifluoromethyl)pyridin-2-yl]piperidin-4-yl}acetonitrile] | < 100 nM |
| O=C(O)c1cccc(N2CCC(CN[C@@H]3C[C@H]3c3ccccc3)(Cc3ccc(F)cc3)CC2)n1 [Example 20, 6-[4-(4-fluorobenzyl)-4-({[(1R,2S)-2-phenylcyclopropyl]amino}methyl)piperidin-1-yl]pyridine-2-carboxylic acid] | < 100 nM |
| O=C(O)c1ccc(N2CCC(CN[C@@H]3C[C@H]3c3ccccc3)(Cc3ccc(F)cc3)CC2)cn1 [Example 21, 5-[4-(4-fluorobenzyl)-4-({[(1R,2S)-2-phenylcyclopropyl]amino}methyl)piperidin-1-yl]pyridine-2-carboxylic acid] | < 100 nM |
| O=C(O)C1(c2ccc(N3CCC(CN[C@@H]4C[C@H]4c4ccccc4)(Cc4ccc(F)cc4)CC3)cc2)CC1 [Example 22, 1-{4-[4-(4-fluorobenzyl)-4-({[(1R,2S)-2-phenylcyclopropyl]amino}methyl)piperidin-1-yl]phenyl}cyclopropanecarboxylic acid] | < 100 nM |
| COCC1(CN[C@@H]2C[C@H]2c2ccccc2)CCN(c2ccnc(C(=O)O)c2)CC1 [Example 23, 4-[4-(methoxymethyl)-4-({[(1R,2S)-2-phenylcyclopropyl]amino}methyl)piperidin-1-yl]pyridine-2-carboxylic acid] | < 100 nM |
| COCC1(CN[C@@H]2C[C@H]2c2ccccc2)CCN(c2cccc(C(=O)O)n2)CC1 [Example 24, 6-[4-(methoxymethyl)-4-({[(1R,2S)-2-phenylcyclopropyl]amino}methyl)piperidin-1-yl]pyridine-2-carboxylic acid] | < 100 nM |
| CC1(CN[C@@H]2C[C@H]2c2ccccc2)CCN(c2ccc(C(=O)O)nc2)CC1 [Example 25, 5-[4-methyl-4-({[(1R,2S)-2-phenylcyclopropyl]amino}methyl)piperidin-1-yl]pyridine-2-carboxylic acid] | < 100 nM |
| CC1(CN[C@@H]2C[C@H]2c2ccccc2)CCN(c2cccc(C(=O)O)n2)CC1 [Example 26, 6-[4-methyl-4-({[(1R,2S)-2-phenylcyclopropyl]amino}methyl)piperidin-1-yl]pyridine-2-carboxylic acid] | < 100 nM |
| CC1(CN[C@@H]2C[C@H]2c2ccccc2)CCN(c2ccnc(C(=O)O)c2)CC1 [Example 27, 4-[4-methyl-4-({[(1R,2S)-2-phenylcyclopropyl]amino}methyl)piperidin-1-yl]pyridine-2-carboxylic acid] | < 100 nM |
| CN(C)C(=O)c1ccc(N2CCC(C)(CN[C@@H]3C[C@H]3c3ccccc3)CC2)cn1 [Example 28, N,N-dimethyl-5-[4-methyl-4-({[(1R,2S)-2-phenylcyclopropyl]amino}methyl)piperidin-1-yl]pyridine-2-carboxamide] | < 100 nM |
| CNC(=O)c1ccc(N2CCC(C)(CN[C@@H]3C[C@H]3c3ccccc3)CC2)cn1 [Example 29, N-methyl-5-[4-methyl-4-({[(1R,2S)-2-phenylcyclopropyl]amino}methyl)piperidin-1-yl]pyridine-2-carboxamide] | < 100 nM |
| Nc1ccnc(N2CCC(N[C@@H]3C[C@H]3c3ccccc3)CC2)n1 [Example 30, 2-(4-{[(1R,2S)-2-phenylcyclopropyl]amino}piperidin-1-yl)pyrimidin-4-amine] | < 100 nM |
| Nc1ccnc(N2CCC(N[C@H]3C[C@@H]3c3ccccc3)CC2)n1 [Example 31, 2-(4-{[(1S,2R)-2-phenylcyclopropyl]amino}piperidin-1-yl)pyrimidin-4-amine] | 100 to 500 nM |

From patent US10513493B2, “Cyclopropylamines as LSD1 inhibitors” (Incyte Corporation, priority 2014, dated 2019)
